In ChEMBL document CHEMBL3885881, “DrugMatrix”:

Species: Rattus norvegicus
Assay: DrugMatrix - Regimen: Daily Repeat
Type: toxicity, organism-based, Sprague-Dawley
Set-up: regimen Daily Repeat, gender Male, age 6-8 weeks
Settings: in vivo, sc, route mini-PUMP - SUBCUTANEOUS, vehicle 100 % SALINE; for ABSOLUTE BASOPHIL / ABSOLUTE EOSINOPHIL / ABSOLUTE LYMPHOCYTE / ABSOLUTE MONOCYTE / ABSOLUTE SEGMENTED NEUTROPHIL / BASOPHIL / EOSINOPHIL / ERYTHROCYTE COUNT / HEMOGLOBIN / LEUKOCYTE COUNT / LYMPHOCYTE / MEAN CORPUSCULAR HEMOGLOBIN / MEAN CORPUSCULAR HEMOGLOBIN CONCENTRATION / MEAN CORPUSCULAR VOLUME / NUCLEATED RED BLOOD CELLS / PLATELET COUNT: tissue Blood; for ALANINE AMINOTRANSFERASE / ALBUMIN / ALKALINE PHOSPHATASE / ASPARTATE AMINOTRANSFERASE / BLOOD UREA NITROGEN / CARBON DIOXIDE / CHLORIDE / CHOLESTEROL / CREATININE / LACTATE DEHYDROGENASE / LIPASE / PHOSPHORUS / POTASSIUM / SODIUM / TOTAL BILIRUBIN / TOTAL PROTEIN: tissue Plasma
[1] = 0 mg/kg, 72 h, dose level Control, time 3 day
[2] = 0 mg/kg, 120 h, dose level Control, time 5 day
[3] = 0 mg/kg, […], dose level Control, time 14 day
[4] = […], 72 h, dose 0.77 mg/Kg, dose level High, time 3 day
[5] = […], 120 h, dose 0.77 mg/Kg, dose level High, time 5 day

CNCC(O)c1ccc(O)c(O)c1 (configuration not stated) [RACEPINEPHRINE]
ABSOLUTE BASOPHIL [1]: 0 CELLS/uL
ABSOLUTE EOSINOPHIL [1]: 77.17 CELLS/uL
ABSOLUTE LYMPHOCYTE [1]: 14293.83 CELLS/uL
ABSOLUTE MONOCYTE [1]: 354 CELLS/uL
ABSOLUTE SEGMENTED NEUTROPHIL [1]: 1658.33 CELLS/uL
BASOPHIL [1]: 0%
EOSINOPHIL [1]: 0.5%
ERYTHROCYTE COUNT [1]: 6.27 x10E6/uL
HEMOGLOBIN [1]: 13.4 G/DL
LEUKOCYTE COUNT [1]: 16.38 x10E3/uL
LYMPHOCYTE [1]: 87.17%
MEAN CORPUSCULAR HEMOGLOBIN [1]: 21.42 pg
MEAN CORPUSCULAR HEMOGLOBIN CONCENTRATION [1]: 36.27 G/DL
MEAN CORPUSCULAR VOLUME [1]: 59.03 fL
NUCLEATED RED BLOOD CELLS [1]: 0 /100WBC
PLATELET COUNT [1]: 904.67 x10E3/uL
ALANINE AMINOTRANSFERASE [1]: 48.33 u/L
ALBUMIN [1]: 3.82 G/DL
ALKALINE PHOSPHATASE [1]: 282.33 u/L
ASPARTATE AMINOTRANSFERASE [1]: 86.83 u/L
BLOOD UREA NITROGEN [1]: 20.17 mg/dL
CARBON DIOXIDE [1]: 34.67 mmol/L
CHLORIDE [1]: 102 MEQ/L
CHOLESTEROL [1]: 71.5 mg/dL
CREATININE [1]: 0.2 mg/dL
LACTATE DEHYDROGENASE [1]: 159 u/L
LIPASE [1]: 9 u/L
PHOSPHORUS [1]: 10.12 mg/dL
POTASSIUM [1]: 5.92 MEQ/L
SODIUM [1]: 147.8 MEQ/L
TOTAL BILIRUBIN [1]: 0.2 mg/dL
TOTAL PROTEIN [1]: 6.05 G/DL
ABSOLUTE BASOPHIL [2]: 0 CELLS/uL
ABSOLUTE EOSINOPHIL [2]: 0 CELLS/uL
ABSOLUTE LYMPHOCYTE [2]: 14257.33 CELLS/uL
ABSOLUTE MONOCYTE [2]: 326 CELLS/uL
ABSOLUTE SEGMENTED NEUTROPHIL [2]: 3216.67 CELLS/uL
BASOPHIL [2]: 0%
EOSINOPHIL [2]: 0%
ERYTHROCYTE COUNT [2]: 6.11 x10E6/uL
HEMOGLOBIN [2]: 13.18 G/DL
LEUKOCYTE COUNT [2]: 17.8 x10E3/uL
LYMPHOCYTE [2]: 80.5%
MEAN CORPUSCULAR HEMOGLOBIN [2]: 21.62 pg
MEAN CORPUSCULAR HEMOGLOBIN CONCENTRATION [2]: 36.42 G/DL
MEAN CORPUSCULAR VOLUME [2]: 59.37 fL
NUCLEATED RED BLOOD CELLS [2]: 0 /100WBC
PLATELET COUNT [2]: 1311 x10E3/uL
ALANINE AMINOTRANSFERASE [2]: 47 u/L
ALBUMIN [2]: 3.83 G/DL
ALKALINE PHOSPHATASE [2]: 260.33 u/L
ASPARTATE AMINOTRANSFERASE [2]: 76.17 u/L
BLOOD UREA NITROGEN [2]: 14.67 mg/dL
CARBON DIOXIDE [2]: 31.33 mmol/L
CHLORIDE [2]: 101.17 MEQ/L
CHOLESTEROL [2]: 75 mg/dL
LACTATE DEHYDROGENASE [2]: 147.33 u/L
LIPASE [2]: 9.33 u/L
PHOSPHORUS [2]: 10.97 mg/dL
POTASSIUM [2]: 6 MEQ/L
SODIUM [2]: 145.52 MEQ/L
TOTAL PROTEIN [2]: 5.83 G/DL
ABSOLUTE BASOPHIL [3]: 0 CELLS/uL
ABSOLUTE EOSINOPHIL [3]: 64.5 CELLS/uL
ABSOLUTE LYMPHOCYTE [3]: 12507.83 CELLS/uL
ABSOLUTE MONOCYTE [3]: 380.33 CELLS/uL
ABSOLUTE SEGMENTED NEUTROPHIL [3]: 2414 CELLS/uL
BASOPHIL [3]: 0%
EOSINOPHIL [3]: 0.5%
ERYTHROCYTE COUNT [3]: 6.1 x10E6/uL
HEMOGLOBIN [3]: 12.88 G/DL
LEUKOCYTE COUNT [3]: 15.37 x10E3/uL
LYMPHOCYTE [3]: 80.83%
MEAN CORPUSCULAR HEMOGLOBIN [3]: 21.18 pg
MEAN CORPUSCULAR HEMOGLOBIN CONCENTRATION [3]: 36.43 G/DL
MEAN CORPUSCULAR VOLUME [3]: 58.17 fL
NUCLEATED RED BLOOD CELLS [3]: 0.17 /100WBC
PLATELET COUNT [3]: 1016 x10E3/uL
ALANINE AMINOTRANSFERASE [3]: 53.33 u/L
ALBUMIN [3]: 3.93 G/DL
ALKALINE PHOSPHATASE [3]: 319.83 u/L
ASPARTATE AMINOTRANSFERASE [3]: 84 u/L
BLOOD UREA NITROGEN [3]: 15.5 mg/dL
CARBON DIOXIDE [3]: 34 mmol/L
CHLORIDE [3]: 101.83 MEQ/L
CHOLESTEROL [3]: 57 mg/dL
CREATININE [3]: 0.21 mg/dL
LACTATE DEHYDROGENASE [3]: 104.67 u/L
LIPASE [3]: 9.17 u/L
PHOSPHORUS [3]: 11.12 mg/dL
POTASSIUM [3]: 5.81 MEQ/L
SODIUM [3]: 144.85 MEQ/L
TOTAL BILIRUBIN [3]: 0.18 mg/dL
TOTAL PROTEIN [3]: 5.92 G/DL
ABSOLUTE BASOPHIL [4]: 0 CELLS/uL
ABSOLUTE EOSINOPHIL [4]: 65.33 CELLS/uL
ABSOLUTE LYMPHOCYTE [4]: 15348.67 CELLS/uL
ABSOLUTE MONOCYTE [4]: 375.67 CELLS/uL
ABSOLUTE SEGMENTED NEUTROPHIL [4]: 2177 CELLS/uL
BASOPHIL [4]: 0%
ERYTHROCYTE COUNT [4]: 6.29 x10E6/uL
HEMOGLOBIN [4]: 13.53 G/DL
LEUKOCYTE COUNT [4]: 17.97 x10E3/uL
MEAN CORPUSCULAR HEMOGLOBIN [4]: 21.53 pg
MEAN CORPUSCULAR HEMOGLOBIN CONCENTRATION [4]: 36.13 G/DL
MEAN CORPUSCULAR VOLUME [4]: 59.7 fL
NUCLEATED RED BLOOD CELLS [4]: 0 /100WBC
PLATELET COUNT [4]: 1245.67 x10E3/uL
ALANINE AMINOTRANSFERASE [4]: 52.67 u/L
ALBUMIN [4]: 4 G/DL
ALKALINE PHOSPHATASE [4]: 340.67 u/L
ASPARTATE AMINOTRANSFERASE [4]: 85 u/L
BLOOD UREA NITROGEN [4]: 16.33 mg/dL
CARBON DIOXIDE [4]: 25.67 mmol/L
CHLORIDE [4]: 101 MEQ/L
CHOLESTEROL [4]: 83.33 mg/dL
LACTATE DEHYDROGENASE [4]: 441.33 u/L
LIPASE [4]: 9.67 u/L
PHOSPHORUS [4]: 12.23 mg/dL
POTASSIUM [4]: 6.83 MEQ/L
SODIUM [4]: 145.53 MEQ/L
TOTAL BILIRUBIN [4]: 0.13 mg/dL
TOTAL PROTEIN [4]: 6.3 G/DL
ABSOLUTE BASOPHIL [5]: 0 CELLS/uL
ABSOLUTE EOSINOPHIL [5]: 0 CELLS/uL
ABSOLUTE LYMPHOCYTE [5]: 14606 CELLS/uL
ABSOLUTE MONOCYTE [5]: 577.33 CELLS/uL
ABSOLUTE SEGMENTED NEUTROPHIL [5]: 4283.33 CELLS/uL
BASOPHIL [5]: 0%
EOSINOPHIL [5]: 0%
ERYTHROCYTE COUNT [5]: 6.1 x10E6/uL
HEMOGLOBIN [5]: 13.07 G/DL
LEUKOCYTE COUNT [5]: 19.47 x10E3/uL
LYMPHOCYTE [5]: 75%
MEAN CORPUSCULAR HEMOGLOBIN [5]: 21.43 pg
MEAN CORPUSCULAR HEMOGLOBIN CONCENTRATION [5]: 36.87 G/DL
MEAN CORPUSCULAR VOLUME [5]: 58.1 fL
NUCLEATED RED BLOOD CELLS [5]: 0 /100WBC
PLATELET COUNT [5]: 1295.33 x10E3/uL
ALANINE AMINOTRANSFERASE [5]: 52.33 u/L
ALBUMIN [5]: 3.83 G/DL
ALKALINE PHOSPHATASE [5]: 328 u/L
ASPARTATE AMINOTRANSFERASE [5]: 85.67 u/L
CHOLESTEROL [5]: 64.67 mg/dL
CREATININE [5]: 0.15 mg/dL
LACTATE DEHYDROGENASE [5]: 386.33 u/L
LIPASE [5]: 9 u/L
PHOSPHORUS [5]: 12.27 mg/dL
POTASSIUM [5]: 6.8 MEQ/L
SODIUM [5]: 147.2 MEQ/L
TOTAL BILIRUBIN [5]: 0.1 mg/dL
TOTAL PROTEIN [5]: 5.9 G/DL
